Assay results from US20080194574A1, “Pyrazine Derivatives As Effective Compounds Against Infectious Diseases” (AXXIMA PHARMACEUTICALS AG, priority 2003, published 2008).
Where two headings read alike, the source gives them in different places.

Target: T1, viral kinase pUL-97 (Human cytomegalovirus, UniProt P16788)
T1 construct: The pUL-97 gene was cloned into a baculovirus vector; GST (glutathione S-transferase) (N); made in house; host or cells: Sf9 insect cells, baculovirus
Assay: UL97 kinase assay on Immobilon plate
Format: biochemical
Conditions: inhibition of UL 97 kinase activity, read-out: Activity Class [A, B, C]
Method in brief: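 Compound was titrated into a radiometric reaction of Sf9-expressed GST-UL97 kinase, incubated 1 h at 30 °C in Tris-HCl pH 7.5/MnCl2/DTT buffer before EDTA stop. MBP substrate and ATP (3 μM in the added assay buffer) were supplied with γ-[33P]ATP. Labelled product bound to Immobilon filter was washed and counted by scintillation.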

[1] = class by IC50 / % inhibition at 10 μM or 100 μM
[2] = class by IC50 / % inhibition at 10 or 100 μM

T1 sequence (P16788 whole entry): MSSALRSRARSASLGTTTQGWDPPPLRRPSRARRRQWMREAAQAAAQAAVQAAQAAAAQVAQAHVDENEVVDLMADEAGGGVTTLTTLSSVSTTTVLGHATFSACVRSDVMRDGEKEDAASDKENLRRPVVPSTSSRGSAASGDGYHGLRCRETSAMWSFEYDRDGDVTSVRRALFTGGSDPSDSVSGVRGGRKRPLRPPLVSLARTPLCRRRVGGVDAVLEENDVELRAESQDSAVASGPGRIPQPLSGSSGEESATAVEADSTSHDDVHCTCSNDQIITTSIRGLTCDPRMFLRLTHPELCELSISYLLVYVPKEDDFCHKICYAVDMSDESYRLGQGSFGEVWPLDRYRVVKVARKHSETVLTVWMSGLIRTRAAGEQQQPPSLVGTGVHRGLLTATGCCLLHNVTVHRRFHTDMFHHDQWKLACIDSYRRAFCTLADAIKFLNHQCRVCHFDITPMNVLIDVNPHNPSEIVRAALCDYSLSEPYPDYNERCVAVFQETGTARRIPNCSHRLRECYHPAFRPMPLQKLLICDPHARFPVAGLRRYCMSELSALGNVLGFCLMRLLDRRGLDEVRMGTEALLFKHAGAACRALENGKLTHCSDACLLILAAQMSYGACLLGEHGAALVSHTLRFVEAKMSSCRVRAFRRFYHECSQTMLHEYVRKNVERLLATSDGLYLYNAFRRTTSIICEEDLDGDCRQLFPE

SMILES | IC50 [1] [µM] | IC50 [2] [µM]
COc1cccc(-c2cncc(N3CCN(c4ccc(Cl)cc4)CC3)n2)c1 [compound 302, 4-(4-Chloro-phenyl)-6′-(3-methoxy-phenyl)-3,4,5,6-tetrahydro-2H-[1,2′]bipyrazinyl] | 1 to 10 | 
FC(F)(F)c1ccc(N2CCN(c3cncc(-c4ccoc4)n3)CC2)cc1 [compound 353, 6′-Furan-3-yl-4-(4-trifluoromethyl-phenyl)-3,4,5,6-tetrahydro-2H-[1,2′]bipyrazinyl] | 10 to 100 | 
NC(=O)c1ccc(-c2cncc(N3CCN(c4ccncc4)CC3)n2)cc1 [Comp. 21, 4-(4-Pyridin-4-yl-3,4,5,6-tetrahydro-2H-[1,2′]bipyrazinyl-6′-yl)-benzamide] |  | < 1
Clc1ccc(N2CCN(c3cncc(-c4ccc5ccccc5c4)n3)CC2)cc1 [compound 348, 4-(4-Chloro-phenyl)-6′-naphthalen-2-yl-3,4,5,6-tetrahydro-2H-[1,2′]bipyrazinyl] | 1 to 10 | 
Cc1cccc(N2CCN(c3cncc(-c4ccoc4)n3)CC2)c1C [compound 346, 4-(2,3-Dimethyl-phenyl)-6′-furan-3-yl-3,4,5,6-tetrahydro-2H-[1,2′]bipyrazinyl] | 10 to 100 | 
COc1ccc(OC)c(-c2cncc(N3CCN(c4ccc(F)cc4)CC3)n2)c1 [compound 234, 6′-(2,5-Dimethoxy-phenyl)-4-(4-fluoro-phenyl)-3,4,5,6-tetrahydro-2H-[1,2′]bipyrazinyl] | 10 to 100 | 
Fc1ccc(-c2cncc(N3CCN(c4ccc(C(F)(F)F)cc4)CC3)n2)cc1 [compound 309, 6′-(4-Fluoro-phenyl)-4-(4-trifluoromethyl-phenyl)-3,4,5,6-tetrahydro-2H-[1,2′]bipyrazinyl] | 10 to 100 | 
c1ccc(-c2cncc(N3CCN(c4ccccn4)CC3)n2)cc1 [compound 49] |  | 1 to 10
Fc1ccc(-c2cncc(N3CCN(c4ccccn4)CC3)n2)cc1 [compound 305, 6′-(4-Fluoro-phenyl)-4-pyridin-2-yl-3,4,5,6-tetrahydro-2H-[1,2′]bipyrazinyl] | 1 to 10 | 
Cc1ccc(-c2cncc(N3CCN(c4ccccn4)CC3)n2)cc1 [compound 328, 4-Pyridin-2-yl-6′-p-tolyl-3,4,5,6-tetrahydro-2H-[1,2′]bipyrazinyl] | 1 to 10 | 
CC(C)(C)c1ccc(-c2cncc(N3CCN(c4ccccc4)CC3)n2)cc1 [compound 95, 6′-(4-tert-Butyl-phenyl)-4-phenyl-3,4,5,6-tetrahydro-2H-[1,2′]bipyrazinyl] |  | 10 to 100
CC(=O)c1cccc(-c2cncc(N3CCN(c4ccccc4F)CC3)n2)c1 [compound 115, 1-{3-[4-(2-Fluoro-phenyl)-3,4,5,6-tetrahydro-2H-[1,2′]bipyrazinyl-6′-yl]-phenyl}-ethanone] |  | 1 to 10
Clc1ccc(N2CCN(c3cncc(-c4ccoc4)n3)CC2)cc1 [compound 349, 4-(4-Chloro-phenyl)-6′-furan-3-yl-3,4,5,6-tetrahydro-2H-[1,2′]bipyrazinyl] | 10 to 100 | 
Cc1ccc(N2CCN(c3cncc(-c4ccc5ccccc5c4)n3)CC2)c(C)c1 [compound 320, 4-(2,4-Dimethyl-phenyl)-6′-naphthalen-2-yl-3,4,5,6-tetrahydro-2H-[1,2′]bipyrazinyl] | 10 to 100 | 
CC(=O)c1ccc(N2CCN(c3cncc(-c4ccoc4)n3)CC2)cc1 [compound 205, 1-[4-(6′-Furan-3-yl-2,3,5,6-tetrahydro-[1,2′]bipyrazinyl-4-yl)-phenyl]-ethanone] | 1 to 10 | 
CCNc1cncc(-c2ccc(C(N)=O)cc2)n1 [compound 40, 4-(6-Ethylamino-pyrazin-2-yl)-benzamide] |  | 1 to 10
COc1cccc(N2CCN(c3cncc(-c4ccc5ccccc5c4)n3)CC2)c1 [compound 322, 4-(3-Methoxy-phenyl)-6′-naphthalen-2-yl-3,4,5,6-tetrahydro-2H-[1,2′]bipyrazinyl] | 1 to 10 | 
NC(=O)c1ccc(-c2cncc(NCc3ccccc3)n2)cc1 [compound 28, 4-(6-Benzylamino-pyrazin-2-yl)-benzamide] |  | < 1
CCCNc1cncc(-c2ccc(C(N)=O)cc2)n1 [compound 25, 4-(6-Propylamino-pyrazin-2-yl)-benzamide] |  | < 1
